The source of these data is US9724312B2, “Agent for the prevention, improvement or treatment of retinal disease” (ROHTO PHARMACEUTICAL CO., LTD., priority 2012, dated 2017).

For this test, the system named is ARPE-19. The test can be described thus: Protective effect for retinal pigment epithelial cells against oxidative stress by hydrogen peroxide. The settings on record: all-trans form content 280 μM, 14 h, then 750 μM hydrogen peroxide 2 h, FIG. 4, n=3. The class given is cell-based, human. The source says: The involvement of oxidative stress in ophthalmologic diseases has been widely reported. Such involvement has been observed in, in addition to glaucoma and cataract, retinal diseases such as retinal diseases due to diabetes, hypertension, hyperlipemia, etc., age-related macular degeneration, retinopathy of prematurity, retinal vascular occlusion, retinal light damage, etc. (Nippon Ganka Gakkai Zasshi. 112, 22-29 (2008)). In the retina, the retinal pigment epithelium exists in an environment in which reactive oxygen easily generates (Invest Opthalmol V is Sci. 2006 July 47(7): 3164-3177). […]
After 2 hours of incubation, the cell culture supernatant was removed, and 200 μL of PBS was added to each well and promptly removed. Then, 100 μL of an equivalent mixture of a cell viability detection reagent Cell Titer-Glo (Promega) and PBS was added to each well and the luminescence produced by the reaction with ATP in living cells was measured with a luminometer (GloMax; Promega). The cell viability was calculated from the measured luminescence by the following formula and the cytoprotective effect of GGA against oxidative stress by hydrogen peroxide was examined. Cell viability(%)=100×[(luminescence of base- or GGA-treated group)/(luminescence of non-treated group)]

As to `CC(=O)CC/C=C(\C)CC/C=C(\C)CC/C=C(\C)CCC=C(C)C` [all-trans form, (5E,9E,13E)-6,10,14,18-tetramethyl-5,9,13,17-nonadecatetrae n-2-one], the “cell viability compared with base-treated group” value was “significantly higher cell viabilities”.
